Data as given in patent US20060241172A1, “Benzodioxane and benzodioxolane derivatives and uses thereof” (Wyeth, priority 2005, published 2006).
Structures can show the parent of a compound that is named as a salt.

SMILES | melting point [°C]
CCCNCC1COc2cccc(-c3ccc(Cl)cc3Cl)c2O1 (stereo not shown) (as salt: fumarate) [Compound I-35, N-{[8-(2,4-Dichlorophenyl)-2,3-dihydro-1,4-benzodioxin-2-yl]methyl}propan-1-amine] | 178 to 179
CC(C)NCC1COc2cccc(-c3ccccc3Cl)c2O1 (stereo not shown) (as salt: fumarate) [Compound I-36, N-{[8-(2-Chlorophenyl)-2,3-dihydro-1,4-benzodioxin-2-yl]methyl}propan-2-amine] | 199 to 200
CN(C)CC1COc2cccc(-c3ccccc3Cl)c2O1 (stereo not shown) (as salt: fumarate) [Compound I-38, {[8-(2-Chlorophenyl)-2,3-dihydro-1,4-benzodioxin-2-yl]methyl}dimethylamine] | 196 to 197
CN(C)CC1COc2cccc(-c3ccc(Cl)cc3Cl)c2O1 (stereo not shown) (as salt: fumarate) [Compound I-39, {[8-(2,4-Dichlorophenyl)-2,3-dihydro-1,4-benzodioxin-2-yl]methyl}dimethylamine] | 232 to 233
Clc1ccccc1-c1cccc2c1OC(CNCC1CC1)CO2 (stereo not shown) (as salt: fumarate) [Compound I-41, {[8-(2-Chlorophenyl)-2,3-dihydro-1,4-benzodioxin-2-yl]methyl}(cyclopropylmethyl)-amine] | 138 to 140
Clc1ccccc1-c1cccc2c1OC(CNC1CC1)CO2 (stereo not shown) (as salt: fumarate) [Compound I-43, N-{[8-(2-Chlorophenyl)-2,3-dihydro-1,4-benzodioxin-2yl]methyl}cyclopropanamine] | 148 to 149
Clc1ccc(-c2cccc3c2OC(CNC2CC2)CO3)c(Cl)c1 (stereo not shown) (as salt: fumarate) [Compound I-44, N-{[8-(2,4-Dichlorophenyl)-2,3-dihydro-1,4-benzodioxin-2-yl]methyl}cyclopropanamine] | 181 to 182
Clc1ccc(-c2cccc3c2OC(CNC2CCC2)CO3)c(Cl)c1 (stereo not shown) (as salt: fumarate) [Compound I-45, N-{[8-(2,4-Dichlorophenyl)-2,3-dihydro-1,4-benzodioxin-2-yl]methyl}cyclobutanamine] | 204 to 205
C[C@]1(CN)COc2cccc(-c3ccccc3Cl)c2O1 (as salt: fumarate) [Compound I-49, {[(2S)-8-(2-Chlorophenyl)-2-methyl-2,3-dihydro-1,4-benzodioxin-2-yl]methyl}amine] | 149 to 152
C[C@]1(CN)COc2cccc(-c3ccc(Cl)cc3)c2O1 (as salt: fumarate) [Compound I-51, {[(2S)-8-(4-Chlorophenyl)-2-methyl-2,3-dihydro-1,4-benzodioxin-2-yl]methyl}amine] | 155 to 158
C[C@]1(CN)COc2cccc(-c3ccsc3)c2O1 (as salt: fumarate) [Compound I-53, {[(2S)-2-Methyl-8-thien-3-yl-2,3-dihydro-1,4-benzodioxin-2-yl]methyl}amine] | 158 to 161
NC[C@H]1COc2cccc(-c3ccccc3Cl)c2O1 (as salt: fumarate) [Compound I-56, 1-[(2S)-8-(2-CHLOROPHENYL)-2,3-DIHYDRO-1,4-BENZODIOXIN-2-YL]METHANAMINE] | 200 to 201
NC[C@H]1COc2cccc(-c3ccccc3C(F)(F)F)c2O1 (as salt: fumarate) [Compound I-57, 1-{(2S)-8-[2-(trifluoromethyl)phenyl]-2,3-dihydro-1,4-benzodioxin-2-yl}methanamine] | 205 to 206
NC[C@H]1COc2cc(Cl)cc(-c3ccccc3Cl)c2O1 (as salt: hydrochloride) [Compound I-58, (2S)-[6-Chloro-8-(2-chloro-phenyl)-2,3-dihydro-benzo[1,4]dioxin-2-yl]-methylamine] | 228 to 230
NC[C@H]1COc2cc(Cl)cc(-c3ccccc3F)c2O1 (as salt: hydrochloride) [Compound I-59, (2S)-[6-Chloro-8-(2-fluoro-phenyl)-2,3-dihydro-benzo[1,4]dioxin-2-yl]-methylamine] | 176 to 178
Cc1ccccc1-c1cc(Cl)cc2c1O[C@@H](CN)CO2 (as salt: hydrochloride) [Compound I-60, (2S)-[6-Chloro-8-(2-methyl-phenyl)-2,3-dihydro-benzo[1,4]dioxin-2-yl]-methylamine] | > 245
COc1ccccc1-c1cc(Cl)cc2c1O[C@@H](CN)CO2 (as salt: hydrochloride) [Compound I-61, (2S)-[6-Chloro-8-(2-methoxy-phenyl)-2,3-dihydro-benzo[1,4]dioxin-2-yl]-methylamine] | 188 to 189
NC[C@H]1COc2cc(Cl)cc(-c3ccccc3C(F)(F)F)c2O1 (as salt: hydrochloride) [Compound I-62, (2S)-[6-Chloro-8-(2-trifluoromethyl-phenyl)-2,3-dihydro-benzo[1,4]dioxin-2-yl]-methylamine] | 231 to 233
NC[C@H]1COc2cc(Cl)cc(-c3ccc(Cl)cc3Cl)c2O1 (as salt: hydrochloride) [Compound I-64, (2S)-[6-Chloro-8-(2,4-dichloro-phenyl)-2,3-dihydro-benzo[1,4]dioxin-2-yl]-methyl amine] | 140
Cc1cc(Cl)ccc1-c1cc(Cl)cc2c1O[C@@H](CN)CO2 (as salt: hydrochloride) [Compound I-65, (2S)-[6-Chloro-8-(4-chloro-2-methyl-phenyl)-2,3-dihydro-benzo[1,4]dioxin-2-yl]-methylamine] | 110
NC[C@H]1COc2cc(Cl)cc(-c3cc(Cl)ccc3Cl)c2O1 (as salt: hydrochloride) [Compound I-67, (2S)-[6-Chloro-8-(2,5-dichloro-phenyl)-2,3-dihydro-benzo[1,4]dioxin-2-yl]-methyl amine] | 205 to 207
COc1ccc(Cl)cc1-c1cc(Cl)cc2c1O[C@@H](CN)CO2 (as salt: hydrochloride) [Compound I-68, (2S)-[6-Chloro-8-(5-chloro-2-methoxy-phenyl)-2,3-dihydro-benzo[1,4]dioxin-2-yl]-methylamine] | 230 to 232
Cc1cccc(C)c1-c1cc(Cl)cc2c1O[C@@H](CN)CO2 (as salt: hydrochloride) [Compound I-69, (2S)-[6-Chloro-8-(2,6-dimethyl-phenyl)-2,3-dihydro-benzo[1,4]dioxin-2-yl]-methyl amine] | 220 to 222
NC[C@H]1COc2ccc(F)c(-c3ccc(Cl)cc3Cl)c2O1 (as salt: hydrochloride) [Compound I-75, ((2S)-7-Fluoro-8-(2,4-di-chloro-phenyl)-2,3-dihydrobenzo[b][1,4]dioxin-2-yl) methanamine] | 65
NCC1Oc2cc(F)cc(-c3ccccc3)c2O1 (stereo not shown) (as salt: hydrochloride) [Compound I-77, 1-(6-Fluoro-4-phenyl-1,3-benzodioxol-2-yl)methanamine] | 227 to 229

The remaining lines, values ahead:

melting point [°C] | SMILES
222 to 223 | CC(C)NCC1COc2cccc(-c3ccc(Cl)cc3Cl)c2O1 (stereo not shown) (as salt: fumarate) [Compound I-37, N-{[8-(2,4-Dichlorophenyl)-2,3-dihydro-1,4-benzodioxin-2-yl]methyl}propan-2-amine]
167 to 168 | C=CCNCC1COc2cccc(-c3ccc(Cl)cc3Cl)c2O1 (stereo not shown) (as salt: fumarate) [Compound I-40, N-{[8-(2,4-Dichlorophenyl)-2,3-dihydro-1,4-benzodioxin-2-yl]methyl}prop-2-en-1-amine]
155 to 156 | Clc1ccc(-c2cccc3c2OC(CNCC2CC2)CO3)c(Cl)c1 (stereo not shown) (as salt: fumarate) [Compound I-42, (Cyclopropylmethyl) {[8-(2,4-dichlorophenyl)-2,3-dihydro-1,4-benzodioxin-2-yl]methyl}amine]
130 to 133 | C[C@]1(CN)COc2cccc(-c3ccccc3)c2O1 (as salt: fumarate) [Compound I-48, {[(2S)-2-Methyl-8-phenyl-2,3-dihydro-1,4-benzodioxin-2-yl]methyl}amine]
110 to 113 | C[C@]1(CN)COc2cccc(-c3cccc(Cl)c3)c2O1 (as salt: fumarate) [Compound I-50, {[(2S)-8-(3-Chlorophenyl)-2-methyl-2,3-dihydro-1,4-benzodioxin-2-yl]methyl}amine]
128 to 131 | COc1ccccc1-c1cccc2c1O[C@@](C)(CN)CO2 (as salt: fumarate) [Compound I-52, {[(2S)-8-(2-Methoxyphenyl)-2-methyl-2,3-dihydro-1,4-benzodioxin-2-yl]methyl}amine]
197 to 199 | COc1cccc(-c2cc(Cl)cc3c2O[C@@H](CN)CO3)c1OC (as salt: hydrochloride) [Compound I-63, (2S)-[6-Chloro-8-(2,3-dimethoxy-phenyl)-2,3-dihydro-benzo[1,4]dioxin-2-yl]-methyl amine]
105 | NC[C@H]1COc2ccc(Cl)c(-c3ccccc3Cl)c2O1 (as salt: hydrochloride) [Compound I-70, (2S)-[7-Chloro-8-(2-chloro-phenyl)-2,3-dihydro-benzo[1,4]dioxin-2-yl]-methylamine]
208 to 210 | NC[C@H]1COc2ccc(F)c(-c3ccccc3Cl)c2O1 (as salt: hydrochloride) [Compound I-71, (2S)-[8-(2-Chloro-phenyl)-7-fluoro-2,3-dihydro-benzo[1,4]dioxin-2-yl]-methylamine]
184 to 186 | COc1ccccc1-c1cc(F)cc2c1OC(CN)O2 (stereo not shown) (as salt: hydrochloride) [Compound I-76, 1-[6-Fluoro-4-(2-methoxyphenyl)-1,3-benzodioxol-2-yl]methanamine]
267 to 270 | NCC1Oc2cc(F)cc(-c3cccc(Cl)c3)c2O1 (stereo not shown) (as salt: hydrochloride) [Compound I-78, 1-[4-(3-Chlorophenyl)-6-fluoro-1,3-benzodioxol-2-yl]methanamine]
262 to 264 | NCC1Oc2cc(F)cc(-c3ccc(Cl)cc3)c2O1 (stereo not shown) (as salt: hydrochloride) [Compound I-79, 1-[4-(4-Chloro-phenyl)-6-fluoro-1,3-benzodioxol-2-yl]methanamine]
